Where no end group is shown, it is not given here.

These results are taken from patent EP1115421B1, “USE OF GLP-1 OR ANALOGS IN TREATMENT OF STROKE” (ELI LILLY AND COMPANY, priority 1998, dated 2009).

In experiment [1] the test system is patients having non-insulin dependent diabetes (NIDDM). Briefly: Overnight subcutaneous infusion in NIDDM patients, blood glucose (Example 1). Format: in vivo.
Experiment [2] has as its system NIDDM patients. Briefly: Infusion during meals in NIDDM patients, blood glucose (Example 2). The class given is in vivo. Conditions: while infused, three hours during breakfast, lunch and dinner; compared with insulin injection; five NIDDM patients.

On to “GLP-1(7-36) amide (HAEGTFTSDVSSYLEGQAAKEFIAWLVKGR-NH2; UniProt P01275 98-127, looked up, fragment) [truncated glucagon-like peptide 1, C-terminal amide]”, for which, in experiment [1] (compared with continuous insulin infusion, average blood glucose significantly lower at 23:00, 0:00 and 1:00), the metabolic control entry is “better than that achieved by insulin”. Also, the “effect on blood glucose” value in experiment [1] (subcutaneous infusion 1.2 pmol/kg/hr, ten hours during the night, five NIDDM patients) is “nearly normalized blood glucose”. Besides, the post-prandial glucose excursions entry in experiment [2] is recorded as “eliminated”.
